Values after ≈ are worked out from the molar mass of the structure shown.
How the values were obtained:
Klebsiella pneumoniae [1] = assay: Bactericidal activity against Klebsiella pneumoniae PTCC 1053 after 24 hr by NCCLS dilution tube method; format: functional; settings: PTCC 1053, 24 h
Escherichia coli [2] = assay: Bactericidal activity against Escherichia coli PTCC 1338 after 24 hr by NCCLS dilution tube method; format: functional; settings: PTCC 1338, 24 h
Pseudomonas aeruginosa [3] = assay: Bactericidal activity against Pseudomonas aeruginosa PTCC 1431 after 24 hr by NCCLS dilution tube method; format: functional; settings: PTCC 1431, 24 h
Staphylococcus aureus [4] = assay: Bactericidal activity against Staphylococcus aureus PTCC 1074 after 24 hr by NCCLS dilution tube method; format: functional; settings: PTCC 1074, 24 h
[5] = Octanol-water partition coefficient, log D of the compound at pH 7.4 after 6 hr by shake flask method; format: physicochemical
Staphylococcus aureus [6] = assay: Bactericidal activity against Staphylococcus aureus wound isolate after 24 hr by NCCLS dilution tube method; format: functional
Escherichia coli [7] = assay: Bactericidal activity against Escherichia coli bronchi isolate after 24 hr by NCCLS dilution tube method; format: functional
Escherichia coli [8] = assay: Bactericidal activity against Escherichia coli urine isolate after 24 hr by NCCLS dilution tube method; format: functional
Acinetobacter baumannii [9] = assay: Bactericidal activity against multidrug-resistant Acinetobacter baumannii urine isolate after 24 hr by NCCLS dilution tube method; format: functional
Acinetobacter baumannii [10] = assay: Bactericidal activity against multidrug-resistant Acinetobacter baumannii wound isolate after 24 hr by NCCLS dilution tube method; format: functional
Acinetobacter baumannii [11] = assay: Bactericidal activity against multidrug-resistant Acinetobacter baumannii bronchi isolate after 24 hr by NCCLS dilution tube method; format: functional
Klebsiella pneumoniae [12] = assay: Bactericidal activity against Klebsiella pneumoniae wound isolate after 24 hr by NCCLS dilution tube method; format: functional
Klebsiella pneumoniae [13] = assay: Bactericidal activity against Klebsiella pneumoniae urine isolate after 24 hr by NCCLS dilution tube method; format: functional
Pseudomonas aeruginosa [14] = assay: Bactericidal activity against Pseudomonas aeruginosa wound isolate after 24 hr by NCCLS dilution tube method; format: functional
Pseudomonas aeruginosa [15] = assay: Bactericidal activity against Pseudomonas aeruginosa urine isolate after 24 hr by NCCLS dilution tube method; format: functional
[16] = system: Staphylococcus saprophyticus; assay: Bactericidal activity against Staphylococcus saprophyticus bronchi isolate after 24 hr by NCCLS dilution tube method; format: functional
[17] = system: Staphylococcus epidermidis; assay: Bactericidal activity against Staphylococcus epidermidis eye isolate after 24 hr by NCCLS dilution tube method; format: functional
Staphylococcus aureus [18] = assay: Bactericidal activity against Staphylococcus aureus urine isolate after 24 hr by NCCLS dilution tube method; format: functional

Row | SMILES | MBC (Klebsiella pneumoniae [1]) | MBC (Escherichia coli [2]) | MBC (Pseudomonas aeruginosa [3]) | MBC (Staphylococcus aureus [4]) | logD at 6 h [5] | MBC (Staphylococcus aureus [6]) | MBC (Escherichia coli [7]) | MBC (Escherichia coli [8]) | MBC (Acinetobacter baumannii [9]) | MBC (Acinetobacter baumannii [10]) | MBC (Acinetobacter baumannii [11]) | MBC (Klebsiella pneumoniae [12]) | MBC (Klebsiella pneumoniae [13]) | MBC (Pseudomonas aeruginosa [14]) | MBC (Pseudomonas aeruginosa [15]) | MBC [16] | MBC [17] | MBC (Staphylococcus aureus [18])
1 | CCCCCn1cnc2c3c(Cl)c4ccccc4nc3ccc21 | 25 µg/mL (≈ 77.2 µM) | 50 µg/mL (≈ 154 µM) | > 100 µg/mL | 12.5 µg/mL (≈ 38.6 µM) | 1.48 |  |  |  |  |  |  |  |  |  |  |  |  | 
2 | CC(C)(O/N=C(\C(=O)N[C@@H]1C(=O)N2C(C(=O)[O-])=C(C[n+]3ccccc3)CS[C@H]12)c1csc(N)n1)C(=O)O [CEFTAZIDIME] |  |  |  |  |  | 63.5 µg/mL (≈ 116 µM) | 45.4 µg/mL (≈ 83.1 µM) | 14.4 µg/mL (≈ 26.3 µM) | 93.7 µg/mL (≈ 171 µM) | 91.7 µg/mL (≈ 168 µM) | 90.6 µg/mL (≈ 166 µM) | 92.8 µg/mL (≈ 170 µM) | 22.9 µg/mL (≈ 41.9 µM) | 90.6 µg/mL (≈ 166 µM) | 43.8 µg/mL (≈ 80.1 µM) | 82.4 µg/mL (≈ 151 µM) | 73.7 µg/mL (≈ 135 µM) | 80.2 µg/mL (≈ 147 µM)
3 | CC1(C)S[C@@H]2[C@H](NC(=O)[C@H](N)c3ccc(O)cc3)C(=O)N2[C@H]1C(=O)O [AMOXICILLIN] |  |  |  |  |  | > 100 µg/mL | > 100 µg/mL | 76.2 µg/mL (≈ 209 µM) | > 100 µg/mL | > 100 µg/mL | > 100 µg/mL | > 100 µg/mL | > 100 µg/mL | > 100 µg/mL | > 100 µg/mL | > 100 µg/mL | > 100 µg/mL | > 100 µg/mL
4 | C=CC1=C(C(=O)O)N2C(=O)[C@@H](NC(=O)/C(=N\OCC(=O)O)c3csc(N)n3)[C@H]2SC1 [CEFIXIME] |  |  |  |  |  | 33.1 µg/mL (≈ 73 µM) | 23.1 µg/mL (≈ 50.9 µM) | 12.1 µg/mL (≈ 26.7 µM) | 75 µg/mL (≈ 165 µM) | 82.8 µg/mL (≈ 183 µM) | 87.5 µg/mL (≈ 193 µM) | 44.6 µg/mL (≈ 98.4 µM) | 20.8 µg/mL (≈ 45.9 µM) | 96.9 µg/mL (≈ 214 µM) | 20 µg/mL (≈ 44.1 µM) | 24.5 µg/mL (≈ 54 µM) | 28.7 µg/mL (≈ 63.3 µM) | 45.2 µg/mL (≈ 99.7 µM)
5 | CCn1cc(C(=O)O)c(=O)c2ccc(C)nc21 [NALIDIXIC ACID] |  |  |  |  |  | 81.6 µg/mL (≈ 351 µM) | 22.7 µg/mL (≈ 97.7 µM) | 24 µg/mL (≈ 103 µM) | > 100 µg/mL | > 100 µg/mL | > 100 µg/mL | 25.9 µg/mL (≈ 112 µM) | 29.1 µg/mL (≈ 125 µM) | > 100 µg/mL | > 100 µg/mL | > 100 µg/mL | > 100 µg/mL | > 100 µg/mL
6 | CCn1cc(C(=O)O)c(=O)c2cc(F)c(N3CCNCC3)cc21 [NORFLOXACIN] |  |  |  |  |  | 9.8 µg/mL (≈ 30.7 µM) | 12.2 µg/mL (≈ 38.2 µM) | 7.3 µg/mL (≈ 22.9 µM) | 62.5 µg/mL (≈ 196 µM) | 41.7 µg/mL (≈ 131 µM) | 37.5 µg/mL (≈ 117 µM) | 50 µg/mL (≈ 157 µM) | 11.5 µg/mL (≈ 36 µM) | 25.8 µg/mL (≈ 80.8 µM) | 13.7 µg/mL (≈ 42.9 µM) | 50 µg/mL (≈ 157 µM) | 75 µg/mL (≈ 235 µM) | 11.5 µg/mL (≈ 36 µM)
7 | CO/N=C(\C(=O)N[C@@H]1C(=O)N2C(C(=O)O)=C(COC(C)=O)CS[C@H]12)c1csc(N)n1 [CEFOTAXIME] |  |  |  |  |  | 12.7 µg/mL (≈ 27.9 µM) | 24.5 µg/mL (≈ 53.8 µM) | 17.3 µg/mL (≈ 38 µM) | 90.6 µg/mL (≈ 199 µM) | 95.8 µg/mL (≈ 210 µM) | 96.9 µg/mL (≈ 213 µM) | 51.8 µg/mL (≈ 114 µM) | 25 µg/mL (≈ 54.9 µM) | 81.2 µg/mL (≈ 178 µM) | 16.3 µg/mL (≈ 35.8 µM) | 95 µg/mL (≈ 209 µM) | 75 µg/mL (≈ 165 µM) | 77.2 µg/mL (≈ 169 µM)
8 | NC[C@H]1O[C@H](O[C@H]2[C@H](O)[C@@H](O[C@H]3O[C@H](CO)[C@@H](O)[C@H](N)[C@H]3O)[C@H](N)C[C@@H]2N)[C@H](O)[C@@H](O)[C@@H]1O [KANAMYCIN] |  |  |  |  |  | 17.9 µg/mL (≈ 36.9 µM) | 85.5 µg/mL (≈ 176 µM) | 84.4 µg/mL (≈ 174 µM) | > 100 µg/mL | > 100 µg/mL | > 100 µg/mL | 16 µg/mL (≈ 33 µM) | 12.5 µg/mL (≈ 25.8 µM) | 48.4 µg/mL (≈ 99.9 µM) | 47.9 µg/mL (≈ 98.9 µM) | 40 µg/mL (≈ 82.6 µM) | 25 µg/mL (≈ 51.6 µM) | 55.1 µg/mL (≈ 114 µM)
9 | CCCn1cnc2c3c(Cl)c4ccccc4nc3ccc21 | 25 µg/mL (≈ 84.5 µM) | 25 µg/mL (≈ 84.5 µM) | > 100 µg/mL | 6.25 µg/mL (≈ 21.1 µM) | 1.09 |  |  |  |  |  |  |  |  |  |  |  |  | 
10 | NC[C@H]1O[C@H](O[C@H]2[C@H](O)[C@@H](O[C@H]3O[C@H](CO)[C@@H](O)[C@H](N)[C@H]3O)[C@H](N)C[C@@H]2N)[C@H](N)C[C@@H]1O [TOBRAMYCIN] |  |  |  |  |  | 17.3 µg/mL (≈ 37 µM) | 74 µg/mL (≈ 158 µM) | 64.3 µg/mL (≈ 138 µM) | 78.1 µg/mL (≈ 167 µM) | 83.3 µg/mL (≈ 178 µM) | 68 µg/mL (≈ 145 µM) | 24.1 µg/mL (≈ 51.5 µM) | 28.1 µg/mL (≈ 60.1 µM) | 26.5 µg/mL (≈ 56.7 µM) | 13.7 µg/mL (≈ 29.3 µM) | 25 µg/mL (≈ 53.5 µM) | 50 µg/mL (≈ 107 µM) | 11.8 µg/mL (≈ 25.2 µM)
11 | CN(C)[C@@H]1C(O)=C(C(N)=O)C(=O)[C@@]2(O)C(O)=C3C(=O)c4c(O)cccc4[C@@](C)(O)[C@H]3C[C@@H]12 [TETRACYCLINE] |  |  |  |  |  | 12.5 µg/mL (≈ 28.1 µM) |  | 20.4 µg/mL (≈ 45.9 µM) | 87.5 µg/mL (≈ 197 µM) |  |  | 30.3 µg/mL (≈ 68.2 µM) | 26 µg/mL (≈ 58.5 µM) | 54.7 µg/mL (≈ 123 µM) | 21.2 µg/mL (≈ 47.7 µM) |  | 81.2 µg/mL (≈ 183 µM) | 26.3 µg/mL (≈ 59.2 µM)
12 | Cn1cnc2c3c(Cl)c4ccccc4nc3ccc21 | 12.5 µg/mL (≈ 46.7 µM) | 6.25 µg/mL (≈ 23.3 µM) | 75 µg/mL (≈ 280 µM) | 3.1 µg/mL (≈ 11.6 µM) | 0.52 | 72.3 µg/mL (≈ 270 µM) | 89.3 µg/mL (≈ 334 µM) | 56.4 µg/mL (≈ 211 µM) | 10.9 µg/mL (≈ 40.7 µM) | 2 µg/mL (≈ 7.47 µM) | 4.7 µg/mL (≈ 17.6 µM) | 85.7 µg/mL (≈ 320 µM) | 47.9 µg/mL (≈ 179 µM) | 75 µg/mL (≈ 280 µM) | 85 µg/mL (≈ 317 µM) | 93.7 µg/mL (≈ 350 µM) | 73.7 µg/mL (≈ 275 µM) | 91 µg/mL (≈ 340 µM)
